# Measurements taken from US20220362168A1, “ADMINISTRATION REGIMES OF CANNABINOIDS IN COMBINATION WITH CHEMOTHERAPEUTICS AGAINST CANCER” (priority 2019, published 2022).
# Entries after “also recorded” stand apart in the source; their conditions may differ.
# How the values were obtained:
# [1] = test system: pERK; experiment: pERK western blotting relative to GAPDH (Example 3); assay type: cell-based; conditions: 100 nM, 1 μM or 10 μM, 48 h, FIG. 2, higher levels of CBD
# Procedure: An adenocarcinoma cell line, growing exponentially, was reset at a concentration of 1×10^4/ml and allowed to adhere overnight. Cannabidiol (CBD) was added at 100 nM, 1 μM, or 10 μM, and cells were harvested for standard western blotting techniques after 48 h. Immunoprobing was performed using anti-pERK antibodies, and the densities of each band determined. These values were then expressed relative to a GAPDH loading control.
# [2] = test system: adenocarcinoma cancer cell line; experiment: Cell viability by cell counting with trypan blue (Example 2); assay type: cell-based; conditions: 0.1, 1 or 10 μM, 48 h, FIG. 1
# Excerpt: An adenocarcinoma cancer cell line, growing exponentially, was reset at a concentration of 1×10^4/ml and allowed to adhere overnight.
# [3] = Side effects / tolerated dose in patients; assay type: in vivo, human; conditions: cancer patients, up to 30 mg twice a day; maximum tolerated dose unable to be defined
# Excerpt: (§1) The minimum duration of treatment required for CBD was six months, but many continued for longer. Less than six months appeared inadequate and had little effect, and therefore cases in which CBD was used for less than six months have been defined as un-assessable, and not included in the current cohort of 119 cases.
# [4] = test system: tumour; experiment: Scans and examination of tumour in individual patients; assay type: in vivo, human
# Procedure: (§2) The majority of the patients were assessed using a circulating tumour cell test before and after treatment, since this is cheaper than carrying out repeated scans. A number of patients however, as a matter of a normal treatment course, had relevant scans.
# Clear objective evidence of potential efficacy was sought where no other treatment option was available. The most impressive case was a patient with an anaplastic ependymoma, a very rare brain tumour. The patient had had all standard treatments, surgery on two occasions followed by chemotherapy and conformal photon radiotherapy. No further treatment options were available to them when treatment on CBD started.
# Another impressive case was a patient with progressive tanycytic ependymoma Grade 2, treated with biopsy and radical radiotherapy for two years. They refused chemotherapy, and had no further treatment options. They started on pharmaceutical-grade synthetic CBD a year after radiotherapy ended, at a dose of 10 drops twice a day, three days on and three days off (10 mg). Prior to this they had been taking, for some time, metformin, mebendazole, doxycycline and atorvastatin from an oncology clinic in Central London.
# At that point the patient stopped taking pharmaceutical-grade synthetic CBD and switched to Cannabis oil extract obtained from an internet website. […] They have since restarted pharmaceutical-grade synthetic CBD and throughout continued to take the metformin, atorvastatin, doxycycline and mebendazole. So, the only change had been stopping the pharmaceutical-grade synthetic CBD and switching to Cannabis oil extract obtained on the Internet.
# [5] = test system: circulating tumour cells (CTCs); experiment: Circulating tumour cell test before and after treatment; assay type: in vivo, human; conditions: for Circulating tumour cells (CTCs): CBD only
# Procedure: as §2
# [6] = test system: cancer patients; experiment: Clinical outcome of 119 cancer patients given synthetic pharmaceutical-grade CBD; assay type: in vivo, human; conditions: for Extended median survival / Stable disease / Died / No effect/result / Slowed progression / Tumour free: number of patients
# Procedure: Patients were given synthetic, pharmaceutical-grade CBD (STI Pharmaceuticals), registered under the Pharmaceutical Specials scheme in oily drops at 5% (w/v) in 20 ml bottles. Each drop contained 1 mg of synthetic CBD in neutral oil. This was prescribed on an informed consent basis. 119 cancer patients decided to have this treatment (Table 1), and most of them had metastatic cancers. Of the 119 patients, 28 were given CBD as the only treatment.
# as §2
# The average dose was 10 mg twice a day. For increased tumour mass, the dose was increased, in some cases up to 30 drops twice a day (30 mg). In a number of cases where stable disease was present, the dose was reduced to five drops twice a day (5 mg). In some cases, Sativex, which is licensed for use in multiple sclerosis, was used in conjunction with CBD as a source of THC, which synergises with CBD. A fraction of the dose used for multiple sclerosis was used. […] Some of the patients reverted to Cannabis oil bought on the Internet, and following this, 80% of these cases relapsed.
# as §1
# [7] = Glioblastoma multiforme, 7 total cases
# [8] = Miscellaneous cancers, 15 total cases
# [9] = Non-Hodgkin's lymphoma, 8 total cases
# [10] = Non-small cell lung, 2 total cases
# [11] = Total of all cancer types, 119 total cases
compound,measurement,setting,value
"C=C(C)[C@@H]1CCC(C)=C[C@H]1c1c(O)cc(CCCCC)cc1O [CBD, cannabidiol]",pERK relative to controls,[1],increased
same,Viability of cancer cells,[2],inactive; also recorded: unaffected
same,Side effects,[3],complete absence of side effects
same,Tumour diameter in left breast,"[4]; 65/female breast cancer, initially 15 cm, CBD plus half course of radiotherapy, last appointment",treatment course. They have continued on CBD alone and on their last appointment the tumour in their left breast was 2 cm
same,Axillary nodes,"[4]; 65/female breast cancer, initially palpable left axillary nodes, last appointment","cm in diameter, with no palpable axillary nodes."
same,Subsequent scans,"[4]; 68/female breast cancer with bone metastases, CBD following local radiotherapy",subsequent scans showed stable disease. They have had no treatment other than CBD following radiotherapy.
same,Subsequent scans,"[4]; person, anaplastic ependymoma, CBD only treatment",disease stability
same,Decrease of tumour volume (scan),"[4]; person, anaplastic ependymoma, CBD only treatment, after ten months",~60%
same,Scan result,"[4]; person, tanycytic ependymoma Grade 2, 10 mg twice a day three days on/off, six months",tumour reduction
same,"Circulating tumour cells (CTCs), first tests","[5]; 62/female breast cancer, CBD as only treatment, when first seen","tests which showed 10.6 cells per 7.5 ml. Subsequent tests 9 months later, 12 months later, two years later and"
same,Circulating tumour cells (CTCs),"[5]; 62/female breast cancer, 9 months later",7.3 cells/7.5 ml
same,Circulating tumour cells (CTCs),"[5]; 62/female breast cancer, 12 months later",6.8 cells/7.5 ml
same,Circulating tumour cells (CTCs),"[5]; 67/female lobular breast cancer, 12 months later",7.5 cells/7.5 ml
same,Circulating tumour cells (CTCs),"[5]; 67/female lobular breast cancer, 18 months later",6.8 cells/7.5 ml
same,Circulating tumour cells (CTCs),"[5]; 67/female lobular breast cancer, 30 months later",3.0 cells/7.5 ml
same,"Circulating tumour cells (CTCs), initial","[5]; 67/female lobular breast cancer, initial","method of treatment. Initial CTCs were 9.3 cells per 7.5 ml. Follow-up measurements 12 months later, 18 months"
same,"Circulating tumour cells (CTCs), initial","[5]; 72/male prostate cancer, initial value before CBD effect",8.1 cells/7.5 ml
same,Circulating tumour cells (CTCs),"[5]; breast cancer, three years later",3.9 cells/7.5 ml
same,Circulating tumour cells (CTCs),"[5]; breast cancer, two years later",5.0 cells/7.5 ml
same,"Circulating tumour cells (CTCs), first reduction","[5]; patient prostate cancer, CBD alone 10 mg twice a day, three days on/off",5.9 cells/7.5 ml
same,Clinical status,"[6]; 62/female breast cancer, CBD only, no symptoms",currently stable
same,Time to death,"[6]; 65/female oesophageal cancer, CBD only treatment, expected survival of three months",weight. They died 14 months later.
same,Clinical condition,"[6]; 65/female oesophageal cancer, CBD only treatment, six months later, regained weight",treatments and investigations. We last saw their six months later when they were looking well and had in fact regained
same,Extended median survival,"[6]; Anaplastic ependymoma, 3 total cases",3
same,Extended median survival,"[6]; Bladder, 2 total cases",1
same,Stable disease,"[6]; Bladder, 2 total cases",1
same,Died,"[6]; Breast, 39 total cases",6
same,Extended median survival,"[6]; Breast, 39 total cases",8
same,No effect/result,"[6]; Breast, 39 total cases",3
same,Slowed progression,"[6]; Breast, 39 total cases",3
same,Stable disease,"[6]; Breast, 39 total cases",21
same,Tumour free,"[6]; Breast, 39 total cases",7
same,Effect of short treatment duration,[6]; CBD used for less than six months,little effect
same,Died,"[6]; Colorectal, 13 total cases",6
same,Extended median survival,"[6]; Colorectal, 13 total cases",9
same,No effect/result,"[6]; Colorectal, 13 total cases",1
same,Slowed progression,"[6]; Colorectal, 13 total cases",1
same,Tumour free,"[6]; Colorectal, 13 total cases",1
same,Extended median survival,"[6]; DIPG, 1 total case",1
same,Died,[6]; [7],3
same,Extended median survival,[6]; [7],4
same,Tumour free,"[6]; Head and Neck, 2 total cases",1
same,Died,[6]; [8],1
same,Extended median survival,[6]; [8],5
same,No effect/result,[6]; [8],1
same,Slowed progression,[6]; [8],1
same,Stable disease,[6]; [8],6
same,Tumour free,[6]; [8],2
same,Stable disease,"[6]; Neuroendocrine, 1 total case",1
same,Died,[6]; [9],1
same,Stable disease,[6]; [9],6
same,Tumour free,[6]; [9],1
same,Died,[6]; [10],2
same,Extended median survival,[6]; [10],2
same,Died,"[6]; Ovarian, 6 total cases",3
same,Extended median survival,"[6]; Ovarian, 6 total cases",5
same,Slowed progression,"[6]; Ovarian, 6 total cases",1
same,Died,"[6]; Pancreatic, 4 total cases",2
same,Extended median survival,"[6]; Pancreatic, 4 total cases",2
same,Died,"[6]; Prostate, 16 total cases",3
same,Extended median survival,"[6]; Prostate, 16 total cases",3
same,Stable disease,"[6]; Prostate, 16 total cases",10
same,Died,[6]; [11],27
same,Extended median survival,[6]; [11],43
same,No effect/result,[6]; [11],5
same,Slowed progression,[6]; [11],8
same,Stable disease,[6]; [11],45
same,Tumour free,[6]; [11],12
same,Clinical effectiveness of dosing pattern,[6]; three days on and three days off versus continuous dose,more effective
